Assay results taken from ChEMBL document CHEMBL1201862, “PubChem BioAssay data set” (2004).
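Grown in 96-well plates, cells were treated for 48 hours with each compound at five concentrations. Insufficient inhibition: endpoint recorded as highest concentration tested. GI50: concentration for 50% inhibition of growth.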 Calls of active or inactive are those of the source. Rule as the data show it: active = GI50 up to about 1.1 µM and inactive = higher.

Legend:
Experiment in all cases: inhibition of tumour cell growth, NCI panel, 48 h
UACC-257 = test system: UACC-257
TK-10 = test system: TK-10
SK-OV-3 = test system: SK-OV-3
HCT-116 = test system: HCT-116
M14 = test system: M14
HCT-15 = test system: HCT-15
SR = test system: SR
COLO 205 = test system: COLO 205
A498 = test system: A498
ACHN = test system: ACHN
SW-620 = test system: SW-620
UO-31 = test system: UO-31
786-0 = test system: 786-0
NCI-H23 = test system: NCI-H23
CCRF-CEM = test system: CCRF-CEM
A549 = test system: A549
SF-539 = test system: SF-539
KM12 = test system: KM12
SNB-75 = test system: SNB-75

| SMILES | GI50 (UACC-257) | GI50 (TK-10) | GI50 (SK-OV-3) | GI50 (HCT-116) | GI50 (M14) | GI50 (HCT-15) [µM] | GI50 (SR) | GI50 (COLO 205) | GI50 (A498) | GI50 (ACHN) | GI50 (SW-620) | GI50 (UO-31) | GI50 (786-0) | GI50 (NCI-H23) | GI50 (CCRF-CEM) | GI50 (A549) | GI50 (SF-539) | GI50 (KM12) | GI50 (SNB-75) |
| --- | --- | --- | --- | --- | --- | --- | --- | --- | --- | --- | --- | --- | --- | --- | --- | --- | --- | --- | --- |
| CCCCCCCC/C=C\CCCCCCCC(=O)NCCN(CCN)C(=O)CCCCCCC/C=C\CCCCCCCC | > 100 µM (inactive) | > 100 µM (inactive) | > 100 µM (inactive) | > 100 µM (inactive) | > 100 µM (inactive) | > 100 | > 100 µM (inactive) | > 100 µM (inactive) | > 100 µM (inactive) | > 100 µM (inactive) | > 100 µM (inactive) | > 100 µM (inactive) | > 100 µM (inactive) | > 100 µM (inactive) | > 100 µM (inactive) | > 100 µM (inactive) |  |  |  |
| CCC12CCCNC1c1c(n(C)c3ccccc13)C(C(=O)OC)C2 (centres undefined) | 59.2 µM (inactive) | 116 µM (inactive) | 46.9 µM (inactive) | 37.6 µM (inactive) |  | 81.1 | 49.8 µM (inactive) | 38.8 µM (inactive) |  | 79.4 µM (inactive) | 68.1 µM (inactive) |  | 93.8 µM (inactive) | 51.6 µM (inactive) | 85.1 µM (inactive) | 93.3 µM (inactive) | 108 µM (inactive) | 58.3 µM (inactive) |  |
| CC(=O)O[C@H]1CC[C@@]2(C)C(=CC[C@@H]3C2CC[C@]2(C)Nc4c(cnn4-c4ccccc4)CC32)C1 (some centres undefined) | 12.4 µM (inactive) | 56.5 µM (inactive) | 27.8 µM (inactive) | 24.4 µM (inactive) | 46.1 µM (inactive) | 10.4 |  |  | 10.6 µM (inactive) | 13.8 µM (inactive) | 19.4 µM (inactive) | 27.1 µM (inactive) | 4.73 µM (inactive) | 28.2 µM (inactive) | 5.51 µM (inactive) | 23.7 µM (inactive) | 2.51 µM (inactive) | 11.9 µM (inactive) | 4.07 µM (inactive) |
| O=C(O)c1c2c(cc3c(=O)cc(-c4ccccc4)oc13)CCCC2 | > 100 µM (inactive) | > 100 µM (inactive) | > 100 µM (inactive) | > 100 µM (inactive) | > 100 µM (inactive) | > 100 |  | > 100 µM (inactive) | > 100 µM (inactive) | > 100 µM (inactive) | > 100 µM (inactive) | > 100 µM (inactive) | > 100 µM (inactive) | > 100 µM (inactive) | > 100 µM (inactive) | > 100 µM (inactive) | > 100 µM (inactive) | > 100 µM (inactive) | 6.59 µM (inactive) |
| Cc1cc(Cl)ccc1NC(=O)C1C(=O)C(=O)N(c2ccc(Cl)cc2C)C1=O (centres undefined) | > 100 µM (inactive) | > 100 µM (inactive) | > 100 µM (inactive) | 43.8 µM (inactive) | 31.2 µM (inactive) | 57.5 |  | > 100 µM (inactive) | > 100 µM (inactive) | > 100 µM (inactive) | > 100 µM (inactive) | 75.7 µM (inactive) | > 100 µM (inactive) | 74.5 µM (inactive) | 55.6 µM (inactive) | > 100 µM (inactive) | > 100 µM (inactive) |  | > 100 µM (inactive) |
| COc1cc2c3c(c1OC)-c1ccccc1C(C(O)c1ccccc1)C3N(C)CC2 (centres undefined) | 20.5 µM (inactive) | 33.9 µM (inactive) | 37.3 µM (inactive) | 19.6 µM (inactive) | 18.1 µM (inactive) | 25.4 | 18 µM (inactive) | 15.8 µM (inactive) |  | 39.1 µM (inactive) | 34.3 µM (inactive) | 19.1 µM (inactive) | 30.7 µM (inactive) | 85.5 µM (inactive) | 26.2 µM (inactive) | 39.5 µM (inactive) | 21.4 µM (inactive) | 25.8 µM (inactive) | 40 µM (inactive) |
| CCCCCCCCOCC(O)COC(C)C (centres undefined) | 27.9 µM (inactive) | > 100 µM (inactive) | > 100 µM (inactive) | 53.1 µM (inactive) | 56.4 µM (inactive) | 27.4 | 17 µM (inactive) | 40 µM (inactive) | 68.9 µM (inactive) | 97.9 µM (inactive) | 59.8 µM (inactive) | 41.3 µM (inactive) | 45.7 µM (inactive) | 25.7 µM (inactive) | 20.9 µM (inactive) | 41.6 µM (inactive) |  |  |  |
| COc1cc(C)c(C(=O)/C=C/c2cc(OC)c(O)c(OC)c2)cc1O | 31.1 µM (inactive) | 45.6 µM (inactive) | 32.1 µM (inactive) | 14.1 µM (inactive) | 15.3 µM (inactive) |  |  | 32.7 µM (inactive) | 31.6 µM (inactive) | 32.8 µM (inactive) | 26.4 µM (inactive) | 23 µM (inactive) | 19.2 µM (inactive) | 12.2 µM (inactive) | 12.5 µM (inactive) | 29.3 µM (inactive) | 29.6 µM (inactive) | 15.9 µM (inactive) | 20.7 µM (inactive) |
| COc1ccc2c(c1)[n+]([O-])c(C(=O)C/C(=N\NC(=O)C[N+](C)(C)C)C(=O)Nc1cc(Cl)ccc1Cl)c(C)[n+]2[O-] | > 100 µM (inactive) | > 100 µM (inactive) |  | > 100 µM (inactive) | > 100 µM (inactive) | > 100 | 43.3 µM (inactive) | > 100 µM (inactive) | > 100 µM (inactive) | > 100 µM (inactive) | > 100 µM (inactive) | > 100 µM (inactive) | > 100 µM (inactive) | > 100 µM (inactive) | > 100 µM (inactive) | > 100 µM (inactive) | > 100 µM (inactive) | > 100 µM (inactive) | > 100 µM (inactive) |
| O=C(O)COc1ccc(O)c2c1C(=O)CCCC2=O | > 100 µM (inactive) | > 100 µM (inactive) | > 100 µM (inactive) | > 100 µM (inactive) | > 100 µM (inactive) | > 100 |  | > 100 µM (inactive) | > 100 µM (inactive) | > 100 µM (inactive) | > 100 µM (inactive) | > 100 µM (inactive) | > 100 µM (inactive) | > 100 µM (inactive) | > 100 µM (inactive) | > 100 µM (inactive) | > 100 µM (inactive) | > 100 µM (inactive) |  |
| O=C(/C=C\c1cccc2ccccc12)c1cccs1 | 13.2 µM (inactive) | 19 µM (inactive) | 15.5 µM (inactive) | 3.03 µM (inactive) | 15.1 µM (inactive) | 3.18 |  | 15.7 µM (inactive) | 15.6 µM (inactive) | 11.5 µM (inactive) | 1.62 µM (inactive) | 12.9 µM (inactive) | 10.7 µM (inactive) | 16.7 µM (inactive) | 2.74 µM (inactive) | 16.8 µM (inactive) | 16.9 µM (inactive) | 4.88 µM (inactive) | 23.6 µM (inactive) |
| O=C(O)CCSCCCN1C(=O)c2ccccc2C1=O | > 100 µM (inactive) | > 100 µM (inactive) | > 100 µM (inactive) | > 100 µM (inactive) |  | > 100 | > 100 µM (inactive) | > 100 µM (inactive) |  | > 100 µM (inactive) | > 100 µM (inactive) | > 100 µM (inactive) | > 100 µM (inactive) | > 100 µM (inactive) |  | > 100 µM (inactive) | > 100 µM (inactive) | > 100 µM (inactive) | > 100 µM (inactive) |
| COc1cc2cc3c4c(cc(OC)c(OC)c4c2cc1OC)CCN3C(=O)CCC(=O)O | > 100 µM (inactive) | > 100 µM (inactive) | > 100 µM (inactive) | > 100 µM (inactive) | > 100 µM (inactive) |  | > 100 µM (inactive) | > 100 µM (inactive) | 97.9 µM (inactive) | > 100 µM (inactive) | > 100 µM (inactive) | > 100 µM (inactive) | > 100 µM (inactive) | > 100 µM (inactive) | > 100 µM (inactive) | > 100 µM (inactive) | > 100 µM (inactive) | > 100 µM (inactive) |  |
| CCCCCCCC(=O)OCC(COC(=O)C(C)(C)C)OC(=O)Cc1ccccc1 (centres undefined) |  | > 100 µM (inactive) | > 100 µM (inactive) | > 100 µM (inactive) | > 100 µM (inactive) | > 100 |  | > 100 µM (inactive) | > 100 µM (inactive) | > 100 µM (inactive) | > 100 µM (inactive) | > 100 µM (inactive) | > 100 µM (inactive) | > 100 µM (inactive) | > 100 µM (inactive) | > 100 µM (inactive) |  |  |  |
| CCOc1ccc2c(c1)[n+]([O-])c(-c1ccccc1Cl)c(N)[n+]2[O-] | > 100 µM (inactive) |  | > 100 µM (inactive) | > 100 µM (inactive) | > 100 µM (inactive) |  | 94 µM (inactive) | > 100 µM (inactive) | > 100 µM (inactive) | > 100 µM (inactive) | > 100 µM (inactive) | > 100 µM (inactive) | > 100 µM (inactive) | > 100 µM (inactive) | 48.2 µM (inactive) | > 100 µM (inactive) | > 100 µM (inactive) | > 100 µM (inactive) | 80 µM (inactive) |
| C=C1c2ccccc2N(S(=O)(=O)c2ccc(C)cc2)C12CCCCC2 | 36 µM (inactive) | > 100 µM (inactive) | > 100 µM (inactive) | 33 µM (inactive) | 94.4 µM (inactive) | > 100 | 13.1 µM (inactive) | 43.5 µM (inactive) |  | 57.4 µM (inactive) | 59.3 µM (inactive) | > 100 µM (inactive) | > 100 µM (inactive) | 25.3 µM (inactive) | 25.2 µM (inactive) | 63.4 µM (inactive) | > 100 µM (inactive) | 38.5 µM (inactive) | 50.9 µM (inactive) |
| COc1cc(C2C(C(=O)O)=C(COC(C)=O)Oc3cc4c(cc32)OCO4)cc(OC)c1OC(C)=O (centres undefined) | > 100 µM (inactive) | > 100 µM (inactive) | > 100 µM (inactive) | > 100 µM (inactive) | > 100 µM (inactive) | > 100 |  | > 100 µM (inactive) |  | > 100 µM (inactive) | > 100 µM (inactive) | > 100 µM (inactive) | > 100 µM (inactive) | > 100 µM (inactive) | > 100 µM (inactive) | > 100 µM (inactive) |  |  | > 100 µM (inactive) |
